Legend:
lipoamide = compound: NC(=O)CCCCC1CCSS1 [lipoamide]; assay: thermal stability z-score vs DMSO; higher = more thermally stabilized by treatment; details: HeLa, lipoamide concentration 100 µM
Description: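 Cellular thermal proteome profiling in HeLa cells. Cells were treated with 100 µM lipoamide for 1 h, with or without 1 mM arsenate for a further 1 h, then heated to ten temperatures (37-66.3 °C), and soluble protein was quantified by TMT mass spectrometry relative to 0.1% DMSO controls. The thermal stability score (sum of log2 fold changes minus the abundance score) was transformed to a z-score; mean of n = 3 experiments.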

potassium arsenate = compound: O=[As]([O-])(O)O.[K+] [potassium arsenate]; assay: as above; details: HeLa; arsenate concentration 1 mM
Description: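 Cellular thermal proteome profiling in HeLa cells treated with 1 mM arsenate for 1 h (DMSO pretreatment), heated to ten temperatures (37-66.3 °C). Soluble protein was quantified by TMT mass spectrometry relative to DMSO controls; the thermal stability score was transformed to a z-score; mean of n = 3 experiments.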

[1] = arsenate co-treatment: 1 mM arsenate 1 h
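Note: each temperature applied for 3 min, abundance score taken as mean log2 fold change at the two lowest temperatures, z-score obtained by mean subtraction and division by SD.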

UniProt Q9BV44, sequence (Q9BV44 whole entry): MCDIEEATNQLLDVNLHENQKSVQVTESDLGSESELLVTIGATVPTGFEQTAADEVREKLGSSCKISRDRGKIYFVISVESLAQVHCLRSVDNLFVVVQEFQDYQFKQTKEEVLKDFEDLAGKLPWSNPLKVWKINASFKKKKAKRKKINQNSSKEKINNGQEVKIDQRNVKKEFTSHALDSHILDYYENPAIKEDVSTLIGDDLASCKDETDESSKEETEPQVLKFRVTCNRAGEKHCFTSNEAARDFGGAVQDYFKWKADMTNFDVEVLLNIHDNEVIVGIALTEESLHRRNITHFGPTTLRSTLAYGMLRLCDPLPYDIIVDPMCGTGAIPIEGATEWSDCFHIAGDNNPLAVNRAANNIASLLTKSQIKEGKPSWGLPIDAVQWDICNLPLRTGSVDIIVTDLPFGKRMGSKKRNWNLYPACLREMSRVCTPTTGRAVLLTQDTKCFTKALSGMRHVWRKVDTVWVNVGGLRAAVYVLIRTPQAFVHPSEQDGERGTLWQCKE
UniProt Q5JTD0, sequence (Q5JTD0 whole entry): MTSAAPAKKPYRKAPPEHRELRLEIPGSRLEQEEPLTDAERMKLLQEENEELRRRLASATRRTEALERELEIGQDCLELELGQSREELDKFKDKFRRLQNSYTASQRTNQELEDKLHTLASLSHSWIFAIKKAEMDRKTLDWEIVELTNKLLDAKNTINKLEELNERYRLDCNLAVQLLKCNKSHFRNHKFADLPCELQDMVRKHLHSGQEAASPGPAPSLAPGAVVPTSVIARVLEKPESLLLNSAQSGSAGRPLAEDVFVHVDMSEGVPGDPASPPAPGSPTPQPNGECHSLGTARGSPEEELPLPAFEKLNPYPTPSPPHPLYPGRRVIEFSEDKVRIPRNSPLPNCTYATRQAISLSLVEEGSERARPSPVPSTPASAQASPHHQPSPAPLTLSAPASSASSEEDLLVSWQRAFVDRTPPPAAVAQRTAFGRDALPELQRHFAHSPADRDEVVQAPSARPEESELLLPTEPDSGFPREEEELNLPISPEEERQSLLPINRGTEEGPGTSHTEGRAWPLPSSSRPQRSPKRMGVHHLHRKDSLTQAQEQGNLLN
UniProt P53350, sequence (P53350 whole entry): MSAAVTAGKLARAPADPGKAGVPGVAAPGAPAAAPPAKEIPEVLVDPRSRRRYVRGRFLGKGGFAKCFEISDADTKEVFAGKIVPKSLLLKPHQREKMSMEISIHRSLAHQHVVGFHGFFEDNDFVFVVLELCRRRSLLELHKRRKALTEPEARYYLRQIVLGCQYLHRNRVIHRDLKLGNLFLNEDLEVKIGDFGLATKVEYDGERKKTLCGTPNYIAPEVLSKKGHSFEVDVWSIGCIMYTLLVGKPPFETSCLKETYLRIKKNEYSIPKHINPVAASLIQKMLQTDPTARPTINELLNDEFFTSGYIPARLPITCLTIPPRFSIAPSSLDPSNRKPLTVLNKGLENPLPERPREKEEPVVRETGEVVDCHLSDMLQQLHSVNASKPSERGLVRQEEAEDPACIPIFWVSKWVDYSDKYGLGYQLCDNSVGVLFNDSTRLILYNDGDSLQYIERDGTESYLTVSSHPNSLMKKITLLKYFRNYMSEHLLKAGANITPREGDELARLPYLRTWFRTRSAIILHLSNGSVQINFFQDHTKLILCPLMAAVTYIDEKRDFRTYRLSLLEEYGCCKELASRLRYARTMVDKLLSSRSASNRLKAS
UniProt Q9Y490, sequence (Q9Y490 whole entry): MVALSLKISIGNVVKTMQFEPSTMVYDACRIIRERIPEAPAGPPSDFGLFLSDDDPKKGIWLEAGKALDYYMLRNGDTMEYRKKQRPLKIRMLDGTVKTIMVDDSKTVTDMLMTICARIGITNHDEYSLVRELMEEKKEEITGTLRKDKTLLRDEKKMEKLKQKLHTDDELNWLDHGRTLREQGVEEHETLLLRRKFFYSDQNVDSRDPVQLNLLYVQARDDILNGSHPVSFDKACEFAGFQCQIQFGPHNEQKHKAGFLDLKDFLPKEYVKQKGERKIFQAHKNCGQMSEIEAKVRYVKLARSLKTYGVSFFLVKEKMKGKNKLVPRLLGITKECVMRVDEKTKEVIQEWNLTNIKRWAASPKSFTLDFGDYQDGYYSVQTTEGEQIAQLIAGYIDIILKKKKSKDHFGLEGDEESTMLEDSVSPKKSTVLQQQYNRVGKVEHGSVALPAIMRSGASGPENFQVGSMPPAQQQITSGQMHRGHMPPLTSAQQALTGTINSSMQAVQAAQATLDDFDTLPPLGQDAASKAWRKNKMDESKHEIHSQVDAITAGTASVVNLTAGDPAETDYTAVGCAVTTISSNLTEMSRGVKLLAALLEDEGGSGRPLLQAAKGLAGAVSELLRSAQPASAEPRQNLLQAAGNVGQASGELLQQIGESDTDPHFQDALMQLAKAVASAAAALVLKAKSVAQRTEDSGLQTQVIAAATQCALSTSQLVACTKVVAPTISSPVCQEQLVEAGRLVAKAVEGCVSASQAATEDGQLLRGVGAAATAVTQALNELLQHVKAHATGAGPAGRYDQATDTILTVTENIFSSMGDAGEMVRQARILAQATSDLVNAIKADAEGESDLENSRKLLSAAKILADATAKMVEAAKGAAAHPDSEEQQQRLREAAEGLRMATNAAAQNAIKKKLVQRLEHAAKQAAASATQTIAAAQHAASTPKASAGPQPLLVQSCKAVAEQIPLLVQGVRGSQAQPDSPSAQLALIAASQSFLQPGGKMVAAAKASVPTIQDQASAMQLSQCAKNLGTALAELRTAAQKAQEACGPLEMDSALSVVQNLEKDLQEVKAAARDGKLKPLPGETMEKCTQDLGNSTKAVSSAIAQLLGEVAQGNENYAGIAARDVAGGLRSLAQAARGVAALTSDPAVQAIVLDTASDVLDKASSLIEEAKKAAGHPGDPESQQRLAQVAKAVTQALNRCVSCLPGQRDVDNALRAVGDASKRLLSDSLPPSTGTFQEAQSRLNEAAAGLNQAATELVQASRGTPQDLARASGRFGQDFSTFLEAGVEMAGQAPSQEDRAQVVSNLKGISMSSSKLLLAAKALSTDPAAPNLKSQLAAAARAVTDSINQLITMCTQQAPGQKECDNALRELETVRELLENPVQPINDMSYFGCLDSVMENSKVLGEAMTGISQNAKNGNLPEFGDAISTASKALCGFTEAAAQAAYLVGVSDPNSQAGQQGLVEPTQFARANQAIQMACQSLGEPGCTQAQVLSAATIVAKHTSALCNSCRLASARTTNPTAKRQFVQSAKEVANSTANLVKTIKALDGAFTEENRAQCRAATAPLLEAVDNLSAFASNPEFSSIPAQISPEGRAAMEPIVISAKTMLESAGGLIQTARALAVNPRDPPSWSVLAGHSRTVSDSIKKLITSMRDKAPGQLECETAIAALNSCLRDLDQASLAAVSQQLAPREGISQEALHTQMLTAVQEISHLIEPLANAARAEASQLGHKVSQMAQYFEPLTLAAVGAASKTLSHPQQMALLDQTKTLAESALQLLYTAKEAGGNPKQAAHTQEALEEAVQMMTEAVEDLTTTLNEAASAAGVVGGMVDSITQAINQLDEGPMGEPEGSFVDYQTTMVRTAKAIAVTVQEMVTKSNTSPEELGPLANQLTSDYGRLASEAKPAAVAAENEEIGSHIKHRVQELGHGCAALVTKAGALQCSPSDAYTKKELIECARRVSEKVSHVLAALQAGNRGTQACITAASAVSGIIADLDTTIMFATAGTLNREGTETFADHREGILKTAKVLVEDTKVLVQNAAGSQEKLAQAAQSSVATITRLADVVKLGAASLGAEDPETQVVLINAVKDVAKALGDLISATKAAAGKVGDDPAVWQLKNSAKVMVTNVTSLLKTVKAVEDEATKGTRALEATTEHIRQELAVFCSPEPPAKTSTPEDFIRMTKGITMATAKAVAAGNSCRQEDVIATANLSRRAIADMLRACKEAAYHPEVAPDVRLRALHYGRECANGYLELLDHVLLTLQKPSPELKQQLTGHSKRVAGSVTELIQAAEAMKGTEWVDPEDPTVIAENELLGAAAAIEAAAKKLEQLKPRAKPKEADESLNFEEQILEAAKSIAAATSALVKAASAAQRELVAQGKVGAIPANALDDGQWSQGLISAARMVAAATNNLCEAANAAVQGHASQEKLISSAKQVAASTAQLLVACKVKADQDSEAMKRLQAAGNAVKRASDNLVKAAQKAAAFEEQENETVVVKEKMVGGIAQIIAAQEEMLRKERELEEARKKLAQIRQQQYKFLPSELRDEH
UniProt Q8IWE2, sequence (Q8IWE2 whole entry): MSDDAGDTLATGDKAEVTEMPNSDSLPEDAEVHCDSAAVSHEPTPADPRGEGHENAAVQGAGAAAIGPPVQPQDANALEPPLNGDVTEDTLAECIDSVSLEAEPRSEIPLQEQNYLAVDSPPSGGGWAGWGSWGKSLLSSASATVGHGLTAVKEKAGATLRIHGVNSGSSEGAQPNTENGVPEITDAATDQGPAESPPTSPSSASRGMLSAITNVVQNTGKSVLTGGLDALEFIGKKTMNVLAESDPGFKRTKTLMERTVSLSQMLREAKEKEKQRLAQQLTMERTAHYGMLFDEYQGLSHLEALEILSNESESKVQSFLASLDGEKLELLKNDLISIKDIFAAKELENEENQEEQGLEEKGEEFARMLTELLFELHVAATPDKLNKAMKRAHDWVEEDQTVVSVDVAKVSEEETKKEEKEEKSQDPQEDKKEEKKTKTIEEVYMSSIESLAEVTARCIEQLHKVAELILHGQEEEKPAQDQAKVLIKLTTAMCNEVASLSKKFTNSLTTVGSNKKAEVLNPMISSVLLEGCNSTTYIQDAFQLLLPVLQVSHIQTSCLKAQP
UniProt Q9H936, sequence (Q9H936 whole entry): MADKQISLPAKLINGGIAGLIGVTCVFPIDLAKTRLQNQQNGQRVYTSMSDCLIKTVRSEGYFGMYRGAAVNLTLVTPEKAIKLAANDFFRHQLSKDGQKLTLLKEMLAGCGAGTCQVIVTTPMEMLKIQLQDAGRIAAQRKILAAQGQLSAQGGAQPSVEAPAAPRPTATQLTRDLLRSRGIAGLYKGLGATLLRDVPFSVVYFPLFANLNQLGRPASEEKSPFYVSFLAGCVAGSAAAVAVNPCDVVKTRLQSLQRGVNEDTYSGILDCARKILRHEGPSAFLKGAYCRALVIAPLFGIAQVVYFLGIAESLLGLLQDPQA

Target	thermal stability z-score (lipoamide; [1])	thermal stability z-score (lipoamide; arsenate co-treatment: none)	thermal stability z-score (potassium arsenate)
SGTB (UniProt Q96EQ0)	0.0457	0.112	-0.308
TSR1 (UniProt Q2NL82)	-0.39	0.00573	0.334
PTCD2 (UniProt Q8WV60)	0.00948	-0.0661	-0.0322
H2AFZ|H2AFV	1.28	1.33	-1.63
RNF40 (UniProt O75150)	0.453	0.161	0.711
ACIN1 (UniProt Q9UKV3)	1.66	0.763	0.115
SLC7A6OS (UniProt Q96CW6)	-0.344	0.403	-0.000281
UACA (UniProt Q9BZF9)	-0.163	-0.0805	0.02
ANAPC7 (UniProt Q9UJX3)	0.306	0.186	0.251
MPHOSPH10 (UniProt O00566)	0.544	0.827	0.849
LAMB1 (UniProt P07942)	-3.22	-2.66	0.724
MIF (UniProt P14174)	0.245	-0.0795	-0.0642
ULK3 (UniProt Q6PHR2)	-0.27	-0.197	-0.285
RNF10 (UniProt Q8N5U6)	-0.0188	-0.286	-0.23
MB21D2 (UniProt Q8IYB1)	0.116	-0.198	0.483
RBM34 (UniProt P42696)	0.0729	-0.0422	-0.201
SURF1 (UniProt Q15526)	-1.27	-0.521	0.165
C3 (UniProt P01024)	-1.67	-1.75	-0.371
PTPRK (UniProt Q15262)	-1.17	-0.25	0.129
PHKG2 (UniProt P15735)	0.926	1.04	0.714
TJAP1 (UniProt Q5JTD0)	-1.54	-0.576	-0.0307
MAGT1 (UniProt Q9H0U3)	-3.45	-2.9	0.251
GPAT4 (UniProt Q86UL3)	-0.413	0.478	-0.231
GPT2 (UniProt Q8TD30)	0.342	0.427	-0.153
NXN (UniProt Q6DKJ4)	0.0765	0.152	0.314
DAAM1 (UniProt Q9Y4D1)	-0.0152	-0.226	0.17
DCAKD (UniProt Q8WVC6)	-0.963	-1.05	0.214
C1GALT1 (UniProt Q9NS00)	-0.00802	-0.575	-0.0716

Target	thermal stability z-score (lipoamide; [1])	thermal stability z-score (lipoamide; arsenate co-treatment: none)	thermal stability z-score (potassium arsenate)
NUDCD2 (UniProt Q8WVJ2)	0.599	0.779	0.58
H2AFX (UniProt P16104)	-0.033	-0.0884	-0.415
ERGIC1 (UniProt Q969X5)	-1.39	-1.4	0.483
PAIP2 (UniProt Q9BPZ3)	0.427	0.233	-1.06
DTWD1 (UniProt Q8N5C7)	-0.492	-0.205	-0.742
ITGB5 (UniProt P18084)	-1.1	-0.661	0.289
TECR (UniProt Q9NZ01)	-1.46	-0.891	-0.077
FANCB (UniProt Q8NB91)	-0.147	-0.547	-1.04
RRP1B (UniProt Q14684)	0.131	0.133	-0.0634
APBB2 (UniProt Q92870)	0.078	-0.11	0.0987
PLK1 (UniProt P53350)	-0.0395	-0.233	-0.584
SLC25A22 (UniProt Q9H936)	-0.147	0.0868	-0.472
ATIC (UniProt P31939)	0.0982	-0.0656	-1.07
DDX49 (UniProt Q9Y6V7)	-0.368	-0.359	-0.153
RPS13 (UniProt P62277)	0.784	0.463	-1.11
METAP1 (UniProt P53582)	-0.0942	-0.673	0.894
AFG3L2 (UniProt Q9Y4W6)	-0.688	-0.0469	-0.123
FDFT1 (UniProt P37268)	-0.0123	0.444	0.108
PDPK1 (UniProt O15530)	0.174	0.131	0.451
TLN1 (UniProt Q9Y490)	0.266	0.266	-0.682
FAM114A1 (UniProt Q8IWE2)	-0.474	-0.338	0.106
C1GALT1C1 (UniProt Q96EU7)	-0.776	-0.734	0.1
TAF2 (UniProt Q6P1X5)	-0.03	-0.0592	-0.179
CBX1 (UniProt P83916)	0.402	0.214	0.0814
TMEM9 (UniProt Q9P0T7)	-2.36	-2	-0.267
CAMK2G (UniProt Q13555)	-0.504	-0.174	0.174
THUMPD3 (UniProt Q9BV44)	0.0954	-0.489	0.37
